Measurements from patent EP1656945A1, “Pharmaceutical composition comprising oligoarginine” (THE BOARD OF TRUSTEES OF THE LELAND STANFORD JUNIOR …, priority 1999, dated 2006).

How the values were obtained:
[1] = system: rabbit carotid artery segment; assay: Ex vivo translocation of biotin-labeled peptides into carotid artery segments; set-up: species or system New Zealand white rabbits; conditions: reincubated in DMEM with 10% FBS; for positive staining (internalized biotin): day 5 after exposure (10.0 µM, 30 minutes)
Description: After incubation with biotin labeled oligomer, vascular segments were washed, then frozen in OCT compound (Miles Scientific). Frozen sections, 5 µm thick, were fixed with acetone for 10 minutes. Internalized biotin was detected using the staining procedure described in Example 2. Methyl green was used for nuclear counter staining.
To quantify the efficiency of nuclear translocation, the numbers of both DAB positive nuclei and total nuclei were counted in the intima and media separately at X400 magnification with a video image analysis system (Automatrix). The frequency of nuclear translocation was expressed as the percent staining of nuclei, defined as the ratio of the number of DAB positive nuclei to that of all nuclei, in the intima and media. Each protocol was repeated 4 times.
Both carotid artery and jugular vein segments of male New Zealand white rabbits were used. To test the dose dependence of R7 translocation, vascular segments were incubated for 30 minutes with either bL-R7 or bD-R7 solution (0.1, 1.0, and 10.0 µM) in serum-free Dulbecco's minimal essential medium (DMEM) (Gibco BRL). To test the incubation time dependence, vascular segments were incubated with 10.0 µM of biotin labeled R7 solution for 10 seconds, 60 seconds, 5 minutes, 10 minutes, and 30 minutes. Furthermore, to determine the ability of R7 to penetrate through the vessel wall, vascular segments were ligated one end, R7 containing medium was instilled, and the other end ligated so as to expose only the luminal surface to R7. The luminal surface of the vascular segment was exposed to bL-R7 or bD-R7 (10.0 µM) for 30 minutes. To test the temperature dependence of translocation, vascular segments were incubated with 10.0 µM of biotin labeled R7 solutions at 37°C or 4°C. To determine the disappearance time course of translocated R7. vascular segments were incubated with biotin labeled R7 solutions (10.0 µM) at 37°C for 30 minutes, and then reincubated in DMEM with 10% FBS up to 5 days. Vascular segments were harvested at 1, 2 and 5 days after initial incubation.

[2] = system: human umbilical vein endothelial cells (ECV304); assay: In vitro translocation of biotin-labeled peptides into endothelial cells; type: cell-based; conditions: control treatments, 30 minutes incubation (peptides 0.1, 1.0, and 10.0 µM)
Description: In the studies described below, transmembrane transport and cellular uptake of oligomers was assessed by incubating cells or tissue with biotin-oligomer conjugates, followed by treatment with horseradish peroxidase (HRP)-conjugated streptavidin and subsequent incubation with DAB (3,3'-diaminobenzidine), a substrate of the enzyme which produces a highly colored product.
Spontaneously transformed human umbilical vein endothelial cells (ECV304, ATCC) were cultured in medium M199 (Irvine Scientific) containing 10% fetal bovine serum (FBS), 100 IU/ml penicillin and 100 µg/ml of streptomycin (Gibco BRL). Confluent cells were washed and placed in serum-free medium. After 2 hours, the cells were incubated in presence of biotin labeled peptides, as bL-R7, or bD-R7, or bL-K7 (0.1, 1.0, and 10.0 µM). After 30 minutes of incubation, cells were washed 3 times with phosphate-buffered saline (PBS), fixed in ethanol/acetone; washed in PBS; incubated for 30 minutes with peroxidase suppressor (ImmunoPure, Pierce) to block endogenous peroxidase activity; and then incubated with 5 µg/ml of horse-radish peroxidase (HRP) conjugated strepavidin (Pierce) for 30 minutes. Substrate of HRP, diaminobenzidine (DAB, Sigma), was added to the cells. The reaction was terminated by washing in distilled water after a 60-second incubation. This experiment was repeated 3 times.

cytokine-stimulated VSMC = assay: Effect of arginine oligomers on NO production (NO2, Griess reaction) in cytokine-stimulated VSMC; type: cell-based, rat
Description: (§1) Rat VSMCs were prepared from the media layer of thoracic aorta of Sprague-Dawley rats by the explant method. The cells were cultured in Dulbecco's modified Eagle's medium (DMEM, Gibco BRL, Gaithersburg, MD) containing 10% fetal calf serum, 100U/ml penicillin and 100µg/ml streptomycin at 37°C under a humidified atmosphere containing 5% CO2. After subconfluent growth, cells were cultured with MEM Select Amine Kit (Gibco BRL, Gaithersburg, MD) to be treated by specific concentrations of extracellular free L-arginine. Experiments were performed using cultured cells at passage levels of 5-10.
Extracellular NO production was measured as its stable oxidative metabolite, nitrite (NO2). At the end of each incubation, samples of the medium (80µl) were collected, and NO2 measurement was performed using the Griess reaction facilitated by a commercial colorimetric assay (Cayman Chemical, Ann Arbor, MI). Values of NO2 production were corrected with relative cell count assessed by a cell proliferation kit II (XTT) (Boeheringer Mannheim, Germany).
Subconfluent cells were pre-incubated with medium containing 100µM arginine for 24 hours. […] After translocation, the cells were incubated with a mixture of IFN-γ (100U/ml) and LPS (100µg/ml) in medium containing 100µM L-arginine for another 24 hours. In some experiments, L-NMMA (1mM), a nitric oxide synthase inhibitor, was added to the medium.

rat VSMC = assay: Stimulation of VSMC with interferon-γ and LPS, dependence of NO2 production on cytokine and L-arginine; type: cell-based; conditions: extracellular L-arginine over the range of 0 to 10mM, IFN-γ (100U/ml) and LPS (100µg/ml) 24 hours
Description: as §1
Extracellular NO production was measured as its stable oxidative metabolite, nitrite (NO2). […] Values of NO2 production were corrected with relative cell count assessed by a cell proliferation kit II (XTT) (Boeheringer Mannheim, Germany).
Cells were plated at a density of 5 × 10^3 per well into 96-well plates. […] After 24 hours of incubation, the cells were then treated with a mixture of IFN-γ (100U/ml) and LPS (100µg/ml) in the medium containing the same dose of L-arginine for another 24 hours, and nitrite (NO2) accumulation in the culture medium was quantified.
No detectable NO2 was measured in the medium of non-stimulated VSMC. When cells were stimulated with a mixture of IFN-γ (100U/ml) and LPS ([…]), a significant amount of NO2 was detected in the medium (14.7 ± 0.3 µM / 10^5 cells / 24 hours). […]

N=C(N)NCCC[C@@H](NC(=O)[C@@H](CCCNC(=N)N)NC(=O)[C@@H](CCCNC(=N)N)NC(=O)[C@@H](CCCNC(=N)N)NC(=O)[C@@H](CCCNC(=N)N)NC(=O)[C@@H](CCCNC(=N)N)NC(=O)[C@@H](CCCNC(=N)N)NC(=O)CCCC[C@@H]1SC[C@@H]2NC(=O)N[C@@H]21)C(=O)O [bD-r7]
positive staining (internalized biotin) [1]: No significant positive staining was observed
residual nuclear biotin in endothelial and medial cells ([1]; days 1 and 2 after exposure (10.0 µM, 30 minutes)): greater in vascular segments treated with bD-r7 than those treated with bL-R7

N=C(N)NCCC[C@H](NC(=O)[C@H](CCCNC(=N)N)NC(=O)[C@H](CCCNC(=N)N)NC(=O)[C@H](CCCNC(=N)N)NC(=O)[C@H](CCCNC(=N)N)NC(=O)[C@H](CCCNC(=N)N)NC(=O)[C@H](CCCNC(=N)N)NC(=O)CCCC[C@@H]1SC[C@@H]2NC(=O)N[C@@H]21)C(=O)O [bR7, biotin-labeled heptaarginine]
positive staining (internalized biotin) [1]: No significant positive staining was observed

O=C(O)CCCC[C@@H]1SC[C@@H]2NC(=O)N[C@@H]21 [biotin]
internalized biotin signals [2]: No internalized biotin signals were detected

N=C(N)NCCC[C@H](N)C(=O)O [L-arginine]
NO biosynthesis (cytokine-stimulated VSMC; 1 mM for 5 minutes (data not shown)): did not significantly increase NO biosynthesis
elevation of NO production (cytokine-stimulated VSMC; high concentrations, up to 1mM): not observed
NO2 synthesis by cytokine stimulated VSMC (rat VSMC): progressive increase in NO2 synthesis
